Our source for the T/C values is PubChem BioAssay AID256 (DTP/NCI, 2004).

Molecules are shown by their SMILES. Values joined by “and” are separate entries in the source; they are usually repeats but may differ in a detail not shown here. Identical values can stand only once. Inconclusive results and toxic doses are left out.

The assay deals with CD2F1 mice, L1210 leukemia ip, survival T/C. As to the kind of experiment: NCI In Vivo Anticancer Drug Screen. Data for tumor model L1210 Leukemia (intraperitoneal) in CD2F1 (CDF1) mice. To be noted: higher = longer survival. Put shortly: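 Each value reflects a quotient of treated over vehicle control outcomes in mice with a transplanted tumor.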
Setting [1] is: endpoint: mean survival time, dose: 25.0 mg/kg/injection, schedule: Q01DX009 (ip), vehicle: saline with Tween-80.
Setting [2] is: endpoint: mean survival time, dose: 50.0 mg/kg/injection, schedule: Q01DX009 (ip), vehicle: saline with Tween-80.
Where [3] appears, read: endpoint: mean survival time, dose: 100.0 mg/kg/injection, schedule: Q04DX003 (ip), vehicle: saline with Tween-80.
Where [4] appears, read: endpoint: mean survival time, dose: 200.0 mg/kg/injection, schedule: Q04DX003 (ip), vehicle: saline with Tween-80.
Setting [5] is: endpoint: mean survival time, dose: 400.0 mg/kg/injection, schedule: Q04DX003 (ip), vehicle: saline with Tween-80.
The mark [6] stands for this setting: endpoint: mean survival time, dose: 200.0 mg/kg/injection, schedule: Q01DX001 (ip), vehicle: saline.
[7] abbreviates: endpoint: mean survival time, dose: 400.0 mg/kg/injection, schedule: Q01DX001 (ip), vehicle: saline.
Where [8] appears, read: endpoint: mean survival time, dose: 50.0 mg/kg/injection, schedule: Q01DX009 (ip), vehicle: saline.
Setting [9] is: endpoint: mean survival time, dose: 100.0 mg/kg/injection, schedule: Q01DX001 (ip), vehicle: saline.
Where [10] appears, read: endpoint: mean survival time, dose: 100.0 mg/kg/injection, schedule: Q01DX009 (ip), vehicle: saline with Tween-80.
The mark [11] stands for this setting: endpoint: mean survival time, dose: 200.0 mg/kg/injection, schedule: Q01DX009 (ip), vehicle: saline with Tween-80.
[12] abbreviates: endpoint: mean survival time, dose: 400.0 mg/kg/injection, schedule: Q01DX009 (ip), vehicle: saline with Tween-80.

As for `CC1CC[N+](C)(CC(=O)c2ccc(-c3ccc(C(=O)C[N+]4(C)CCC(C)CC4)cc3)cc2)CC1` (centres undefined), the T/C was 96 % of control (endpoint: mean survival time, dose: 0.02 mg/kg/injection, schedule: Q04DX003 (ip), vehicle: Klucel (hydroxypropylcellulose) (HPC)); 98 % of control (endpoint: mean survival time, dose: 0.04 mg/kg/injection, schedule: Q04DX003 (ip), vehicle: Klucel (hydroxypropylcellulose) (HPC)); 87 % of control and 95 % of control (endpoint: mean survival time, dose: 0.08 mg/kg/injection, schedule: Q04DX003 (ip), vehicle: Klucel (hydroxypropylcellulose) (HPC)).
Turning to `O=C(Nc1cccc(C(F)(F)F)c1)c1cccc(C(=O)Nc2cccc(C(F)(F)F)c2)c1`, the T/C was 92 % of control (endpoint: mean survival time, dose: 12.5 mg/kg/injection, schedule: Q01DX009 (ip), vehicle: saline with Tween-80); 89 % of control under setting [1]; 89 % of control under setting [2].
Take `COC(=O)C1C2(C)CCc3cc(OC)ccc3C2=CC(=O)C1(C)C(=O)OC` (centres undefined): the T/C is 97 % of control (endpoint: mean survival time, dose: 100.0 mg/kg/injection, schedule: Q04DX003 (sc), vehicle: steriod suspending solution); 103 % of control (endpoint: mean survival time, dose: 200.0 mg/kg/injection, schedule: Q04DX003 (sc), vehicle: steriod suspending solution); 98 % of control (endpoint: mean survival time, dose: 400.0 mg/kg/injection, schedule: Q04DX003 (sc), vehicle: steriod suspending solution).
As for `NCCCN1CCN(c2ccccc2)CC1`, the T/C (endpoint: mean survival time, dose: 100.0 mg/kg/injection, schedule: Q04DX002 (ip), vehicle: saline with Tween-80) is 92 % of control and the T/C (endpoint: mean survival time, dose: 200.0 mg/kg/injection, schedule: Q04DX002 (ip), vehicle: saline with Tween-80) was 92 % of control.
Turning to `COc1ccccc1C(=O)C(=O)c1ccccc1OC`, the T/C by setting is: under setting [3], 100 % of control; under setting [4], 96 % of control; under setting [5], 100 % of control.
As for `O=P1(NCCCl)OCCCN1CCCl` (centres undefined), the T/C reads like this: (endpoint: mean survival time, dose: 25.0 mg/kg/injection, schedule: Q01DX001 (ip), vehicle: DMSO) 111 % of control; (endpoint: mean survival time, dose: 25.0 mg/kg/injection, schedule: Q01DX001 (ip), vehicle: saline) 102 % of control; (endpoint: mean survival time, dose: 50.0 mg/kg/injection, schedule: Q01DX001 (ip), vehicle: saline) 122 % of control; (endpoint: mean survival time, dose: 100.0 mg/kg/injection, schedule: Q01DX001 (ip), vehicle: DMSO) 153 % of control; (endpoint: mean survival time, dose: 200.0 mg/kg/injection, schedule: Q01DX001 (ip), vehicle: DMSO) 397 % of control; under setting [6], 170 % of control. Further, the T/C by setting is: (endpoint: mean survival time, dose: 400.0 mg/kg/injection, schedule: Q01DX001 (ip), vehicle: DMSO) 430 % of control; (endpoint: mean survival time, dose: 400.0 mg/kg/injection, schedule: Q01DX001 (ip), vehicle: clinical formulation) 416 % of control; under setting [7], 326 % of control and 685 % of control; (endpoint: mean survival time, dose: 600.0 mg/kg/injection, schedule: Q01DX001 (ip), vehicle: clinical formulation) 437 % of control; (endpoint: mean survival time, dose: 600.0 mg/kg/injection, schedule: Q01DX001 (ip), vehicle: saline) 451 % of control; (endpoint: median survival time, dose: 108.0 mg/kg/injection, schedule: Q01DX001 (ip), vehicle: water) 155 % of control and 157 % of control. Moreover, the T/C is 166 % of control and 173 % of control (endpoint: median survival time, dose: 180.0 mg/kg/injection, schedule: Q01DX001 (ip), vehicle: water); 315 % of control (endpoint: median survival time, dose: 300.0 mg/kg/injection, schedule: Q01DX001 (ip), vehicle: saline); 200 % of control and 215 % of control (endpoint: median survival time, dose: 300.0 mg/kg/injection, schedule: Q01DX001 (ip), vehicle: water); 223 % of control (endpoint: median survival time, dose: 300.0 mg/kg/injection, schedule: Q01DX001 (iv), vehicle: saline); 616 % of control (endpoint: median survival time, dose: 450.0 mg/kg/injection, schedule: Q01DX001 (ip), vehicle: saline); 616 % of control (endpoint: median survival time, dose: 450.0 mg/kg/injection, schedule: Q01DX001 (iv), vehicle: saline). The T/C (endpoint: median survival time, dose: 500.0 mg/kg/injection, schedule: Q01DX001 (ip), vehicle: water) was 65 % of control.
Take `N#CSc1ccc(Nc2ccc(SC#N)cc2)cc1`: the T/C is, setting by setting: (endpoint: mean survival time, dose: 12.5 mg/kg/injection, schedule: Q04DX003 (ip), vehicle: Klucel (hydroxypropylcellulose) (HPC)) 113 % of control; (endpoint: mean survival time, dose: 25.0 mg/kg/injection, schedule: Q04DX003 (ip), vehicle: Klucel (hydroxypropylcellulose) (HPC)) 109 % of control; (endpoint: mean survival time, dose: 50.0 mg/kg/injection, schedule: Q04DX003 (ip), vehicle: Klucel (hydroxypropylcellulose) (HPC)) 107 % of control.
In the case of `ClCC(Cl)CN1CCCCC1` (centres undefined), the T/C is 100 % of control (endpoint: mean survival time, dose: 25.0 mg/kg/injection, schedule: Q01DX009 (ip), vehicle: saline) and 103 % of control under setting [8].
As to `NC(CO)C(O)C(O)C(O)CO` (centres undefined), the T/C is, setting by setting: under setting [9], 106 % of control; under setting [6], 98 % of control; under setting [7], 103 % of control.
As for `O=C1c2ccccc2C(=O)N1CCCCCCCCCCN1C(=O)c2ccccc2C1=O`, the T/C was 92 % of control under setting [10], 89 % of control under setting [11] and 93 % of control under setting [12].
As to `CCN(CC)CCN(CC)C(=O)C(O)(c1ccccc1)c1ccccc1`, the T/C is, setting by setting: under setting [8], 98 % of control; (endpoint: mean survival time, dose: 100.0 mg/kg/injection, schedule: Q01DX009 (ip), vehicle: saline) 95 % of control; (endpoint: mean survival time, dose: 200.0 mg/kg/injection, schedule: Q01DX009 (ip), vehicle: saline) 91 % of control.
Turning to `CC(CN1CCCCC1)C(=O)c1ccc(-c2ccccc2)cc1` (centres undefined), the T/C under setting [1] was 97 % of control, the T/C under setting [2] was 100 % of control and the T/C under setting [10] is 97 % of control.
With `CCOC(=O)Nc1cc(Cl)ccc1O`, the T/C under setting [10] is 103 % of control; the T/C under setting [3] was 92 % of control; the T/C under setting [11] is 104 % of control; the T/C under setting [4] is 103 % of control; the T/C under setting [5] is 88 % of control.
For the compound `N#CC(C(=O)O)C1CCCCC1=O` (centres undefined), the T/C was 100 % of control (endpoint: median survival time, dose: 50.0 mg/kg/injection, schedule: Q04DX002 (ip), vehicle: saline with Tween-80); 100 % of control (endpoint: median survival time, dose: 100.0 mg/kg/injection, schedule: Q04DX002 (ip), vehicle: saline with Tween-80); 100 % of control (endpoint: median survival time, dose: 200.0 mg/kg/injection, schedule: Q04DX002 (ip), vehicle: saline with Tween-80).
`O=C1CC2C=CCC12` (centres undefined): the T/C is, setting by setting: under setting [10], 98 % of control; under setting [11], 98 % of control; under setting [12], 100 % of control.
For `O=C(O)c1ccccc1C(=O)Nc1cc(C(F)(F)F)ccc1Cl`, the T/C under setting [10] was 104 % of control; the T/C under setting [3] was 105 % of control; the T/C under setting [11] is 96 % of control; the T/C under setting [4] is 105 % of control; the T/C under setting [5] is 111 % of control.
In the case of `CCCCN(CCCC)CCCC`, the T/C under setting [9] is 93 % of control.
As to `[Cl][Pt+2][Cl].[NH-]C1CCC1.[NH2-]`, the T/C was 98 % of control (endpoint: mean survival time, dose: 0.39 mg/kg/injection, schedule: Q04DX003 (ip), vehicle: saline); 100 % of control (endpoint: mean survival time, dose: 0.78 mg/kg/injection, schedule: Q04DX003 (ip), vehicle: saline); 120 % of control (endpoint: mean survival time, dose: 1.56 mg/kg/injection, schedule: Q04DX003 (ip), vehicle: saline); 110 % of control (endpoint: mean survival time, dose: 3.12 mg/kg/injection, schedule: Q04DX003 (ip), vehicle: distilled water + Tween-80); 200 % of control (endpoint: mean survival time, dose: 3.12 mg/kg/injection, schedule: Q04DX003 (ip), vehicle: water); 86 % of control (endpoint: mean survival time, dose: 6.25 mg/kg/injection, schedule: Q04DX003 (ip), vehicle: distilled water + Tween-80). For the same compound, the T/C runs as follows: (endpoint: mean survival time, dose: 6.25 mg/kg/injection, schedule: Q04DX003 (ip), vehicle: saline) 168 % of control; (endpoint: mean survival time, dose: 6.25 mg/kg/injection, schedule: Q04DX003 (ip), vehicle: water) 111 % of control; (endpoint: median survival time, dose: 0.38 mg/kg/injection, schedule: Q01DX009 (ip), vehicle: saline) 122 % of control; (endpoint: median survival time, dose: 1.5 mg/kg/injection, schedule: Q01DX009 (ip), vehicle: saline) 156 % of control and 172 % of control; (endpoint: median survival time, dose: 3.0 mg/kg/injection, schedule: Q01DX009 (ip), vehicle: saline) 184 % of control and 213 % of control; (endpoint: median survival time, dose: 3.0 mg/kg/injection, schedule: Q01DX009 (ip), vehicle: suspension in saline) 314 % of control. In addition, the T/C (endpoint: median survival time, dose: 6.0 mg/kg/injection, schedule: Q01DX009 (ip), vehicle: saline) is 116 % of control and 123 % of control; the T/C (endpoint: median survival time, dose: 12.0 mg/kg/injection, schedule: Q01DX009 (ip), vehicle: suspension in saline) is 111 % of control.
As to `CN1C(=O)c2ccccc2C1(c1ccccc1)c1ccccc1`, the T/C by setting is: under setting [3], 92 % of control; under setting [4], 103 % of control; under setting [5], 102 % of control.
